Results from ChEMBL document CHEMBL1127336, “P1 aspartate-based peptide alpha-((2,6-dichlorobenzoyl)oxy)methyl ketones as potent time-dependent inhibitors of interleukin-1 beta-converting enzyme” (J Med Chem, 1994).

Columns and labels:
[1] = target: T1, Caspase-1 (Homo sapiens) (UniProt P29466); test: Compound was evaluated for the ability to inhibit Interleukin-1-beta-converting enzyme (ICE) purified from THP-1 cells; […]
T1 sequence (whole entry): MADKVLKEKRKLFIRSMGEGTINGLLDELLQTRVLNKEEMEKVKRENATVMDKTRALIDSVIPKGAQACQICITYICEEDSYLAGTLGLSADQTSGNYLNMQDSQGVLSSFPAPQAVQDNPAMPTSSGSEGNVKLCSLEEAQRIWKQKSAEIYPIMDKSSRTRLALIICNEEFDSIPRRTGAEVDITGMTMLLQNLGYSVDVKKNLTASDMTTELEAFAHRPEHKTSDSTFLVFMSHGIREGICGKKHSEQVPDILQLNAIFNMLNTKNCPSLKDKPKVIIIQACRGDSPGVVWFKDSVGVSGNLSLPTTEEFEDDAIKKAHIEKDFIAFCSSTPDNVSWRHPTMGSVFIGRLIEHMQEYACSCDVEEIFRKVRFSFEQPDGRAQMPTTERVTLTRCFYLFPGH

[2] = target: Cathepsin B (Bos taurus) (UniProt P07688); test: Compound was evaluated for the ability to inhibit cathepsin B purified from bovine spleen
[3] = Selectivity (ICE:cathepsin) of the compound; 700:1
[4] = Selectivity (ICE:cathepsin) of the compound; 108:1
[5] = target: T1, Caspase-1 (Homo sapiens); test: Compound was evaluated for the ability to inhibit Interleukin-1-beta-converting enzyme (ICE) purified from THP-1 cells

| k obs / 1 [1] | k obs / 1 [2] [M⁻¹ s⁻¹] | Selectivity [3] | Selectivity [4] | k obs / 1 [5] [M⁻¹ s⁻¹] | SMILES |
| --- | --- | --- | --- | --- | --- |
| No inhibition |  |  |  |  | O=C(O)CC[C@H](NC(=O)OCc1ccccc1)C(=O)COC(=O)c1c(Cl)cccc1Cl |
|  | 2250 |  |  |  | CC(C)[C@H](NC(=O)OCc1ccccc1)C(=O)N[C@@H](C)C(=O)N[C@@H](CC(=O)O)C(=O)COC(=O)c1c(Cl)cccc1Cl |
|  | < 10 | > 700 |  |  | O=C(O)C[C@H](NC(=O)OCc1ccccc1)C(=O)COC(=O)c1c(Cl)cccc1Cl |
|  | 380 |  | 108 | 41000 | CC(C)C(NC(=O)OCc1ccccc1)C(=O)N[C@@H](CC(=O)O)C(=O)COC(=O)c1c(Cl)cccc1Cl (some centres not stated) |
